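1) Cells in 96-well plates. 2) Compound, 48 h, 5 concentrations. 3) Linear interpolation between surrounding doses. 4) Unreached endpoint = highest concentration. GI50: concentration for 50% inhibition of growth.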 Calls of active or inactive are those of the source. Cut-off read from the data, not from the text of the source: active = GI50 up to about 1.1 µM and inactive = higher.
Assays:
Assay in all cases: inhibition of tumour cell growth, NCI panel, 48 h
ACHN = tested on: ACHN
COLO 205 = tested on: COLO 205
HCC 2998 = tested on: HCC 2998
HL-60 = tested on: HL-60
HOP-62 = tested on: HOP-62
M19-MEL = tested on: M19-MEL
NCI-H226 = tested on: NCI-H226
NCI-H23 = tested on: NCI-H23
OVCAR-8 = tested on: OVCAR-8
RXF 393 = tested on: RXF 393
SF-539 = tested on: SF-539
SK-MEL-2 = tested on: SK-MEL-2
SN12C = tested on: SN12C
SNB-75 = tested on: SNB-75
U-251 = tested on: U-251
OVCAR-3 = tested on: OVCAR-3
MDA-MB-231 = tested on: MDA-MB-231
NCI/ADR-RES = tested on: NCI/ADR-RES
PC-3 = tested on: PC-3
T47D = tested on: T47D

| SMILES | GI50 (ACHN) | GI50 (COLO 205) | GI50 (HCC 2998) | GI50 (HL-60) | GI50 (HOP-62) | GI50 (M19-MEL) | GI50 (NCI-H226) | GI50 (NCI-H23) | GI50 (OVCAR-8) | GI50 (RXF 393) | GI50 (SF-539) | GI50 (SK-MEL-2) | GI50 (SN12C) | GI50 (SNB-75) | GI50 (U-251) | GI50 (OVCAR-3) | GI50 (MDA-MB-231) | GI50 (NCI/ADR-RES) | GI50 (PC-3) | GI50 (T47D) |
| --- | --- | --- | --- | --- | --- | --- | --- | --- | --- | --- | --- | --- | --- | --- | --- | --- | --- | --- | --- | --- |
| CCOc1ccc(C(CN2CCOCC2)C(C)=O)cc1OC (stereo not given) | 14.2 µM (inactive) | 6.62 µM (inactive) | 18.4 µM (inactive) | 3.78 µM (inactive) | 21 µM (inactive) | 18.9 µM (inactive) | 17.7 µM (inactive) | 18.6 µM (inactive) | 20.1 µM (inactive) | 21 µM (inactive) | 16 µM (inactive) | 14.3 µM (inactive) | 17.4 µM (inactive) | 18.7 µM (inactive) | 18 µM (inactive) |  |  |  |  |  |
| CCCCCCC(O)CC[C@H]1CCC[C@@H](C)N1 (stereo not given in full) | > 100 µM (inactive) | > 31.6 µM (inactive) | > 19.9 µM (inactive) | > 100 µM (inactive) | > 31.6 µM (inactive) | > 31.6 µM (inactive) | > 100 µM (inactive) | > 10 µM (inactive) | > 10 µM (inactive) | > 100 µM (inactive) | > 100 µM (inactive) | > 10 µM (inactive) | > 100 µM (inactive) | > 31.6 µM (inactive) | > 31.6 µM (inactive) | > 10 µM (inactive) |  |  |  |  |
| O=S(=O)(N/N=C/c1ccc(/C=N/NS(=O)(=O)c2ccccc2)cc1)c1ccccc1 | 55.8 µM (inactive) | 21.4 µM (inactive) | > 100 µM (inactive) | 23.2 µM (inactive) | 44.9 µM (inactive) | 50.6 µM (inactive) | > 100 µM (inactive) | 35.2 µM (inactive) | 42 µM (inactive) | 27.7 µM (inactive) | 29 µM (inactive) | 43.5 µM (inactive) | 42.6 µM (inactive) | 70.3 µM (inactive) | 41 µM (inactive) | 30.7 µM (inactive) |  |  |  |  |
| Cc1cccc(NC(=O)c2cc3cc(/N=N/c4ccccc4Cl)ccc3oc2=O)c1 | 40 µM (inactive) | 57.7 µM (inactive) | 26.1 µM (inactive) | > 100 µM (inactive) | 46.2 µM (inactive) | 32.1 µM (inactive) | 13 µM (inactive) | 19.7 µM (inactive) | 27 µM (inactive) | 33.1 µM (inactive) | 30.3 µM (inactive) |  | 30.2 µM (inactive) | 60.8 µM (inactive) | 26.5 µM (inactive) | 26.8 µM (inactive) |  |  |  |  |
| Cc1cc(C)c(C2=NO[C@@H]3C(=O)N(c4ccc(Cc5ccc(N6C(=O)[C@H]7C(c8c(C)cc(C)cc8C)=NO[C@H]7C6=O)cc5)cc4)C(=O)[C@H]23)c(C)c1 |  | > 100 µM (inactive) | > 100 µM (inactive) | > 100 µM (inactive) | > 100 µM (inactive) | > 100 µM (inactive) | > 100 µM (inactive) | > 100 µM (inactive) | > 100 µM (inactive) | > 100 µM (inactive) | > 100 µM (inactive) | > 100 µM (inactive) | > 100 µM (inactive) | > 100 µM (inactive) |  | > 100 µM (inactive) |  |  |  |  |
| CC1=NN(C(=O)Cc2ccccc2)C(=O)/C1=C\c1ccccc1O | > 100 µM (inactive) | > 100 µM (inactive) | > 100 µM (inactive) | > 100 µM (inactive) | > 100 µM (inactive) | > 100 µM (inactive) | > 100 µM (inactive) | > 100 µM (inactive) | > 100 µM (inactive) | > 100 µM (inactive) | > 100 µM (inactive) | > 100 µM (inactive) | > 100 µM (inactive) |  | > 100 µM (inactive) | > 100 µM (inactive) |  |  |  |  |
| N#C/C(=C\c1ccccc1Br)C(=O)c1ccccc1 | > 53.8 µM (inactive) | > 65.9 µM (inactive) | > 95.7 µM (inactive) | 1.28 µM (inactive) | 39.7 µM (inactive) | 33.4 µM (inactive) | > 54.8 µM (inactive) | > 40.4 µM (inactive) | 11.1 µM (inactive) | 32.9 µM (inactive) | > 91.2 µM (inactive) | > 65.5 µM (inactive) | > 43.3 µM (inactive) |  | > 48.3 µM (inactive) | > 41.1 µM (inactive) |  |  |  |  |
| CC1=CC(N2C(=O)C(C)=CC2O)NC1=O (stereo not given) |  | > 100 µM (inactive) | > 100 µM (inactive) | > 100 µM (inactive) | > 100 µM (inactive) | > 100 µM (inactive) | > 100 µM (inactive) | > 100 µM (inactive) | > 100 µM (inactive) | > 100 µM (inactive) | > 100 µM (inactive) | > 100 µM (inactive) | > 100 µM (inactive) | > 100 µM (inactive) | > 100 µM (inactive) | > 100 µM (inactive) |  |  |  |  |
| CN1c2ccccc2N(C(=O)c2ccc(Cl)cc2)C(CC(=O)O)c2cccn21 (stereo not given) | > 100 µM (inactive) | > 100 µM (inactive) | > 100 µM (inactive) | > 100 µM (inactive) | > 100 µM (inactive) | > 100 µM (inactive) | > 100 µM (inactive) | > 100 µM (inactive) | > 100 µM (inactive) | > 100 µM (inactive) | > 100 µM (inactive) | > 100 µM (inactive) | > 100 µM (inactive) | > 100 µM (inactive) |  | > 100 µM (inactive) |  |  |  |  |
| CCC(=O)C(C)C(=O)C(=O)C(=O)OC (stereo not given) | > 100 µM (inactive) | > 60.5 µM (inactive) | > 100 µM (inactive) | > 44.4 µM (inactive) | > 100 µM (inactive) | > 100 µM (inactive) | > 100 µM (inactive) | > 100 µM (inactive) | > 100 µM (inactive) | > 63.5 µM (inactive) | > 100 µM (inactive) | > 100 µM (inactive) | > 100 µM (inactive) | > 100 µM (inactive) | > 47.3 µM (inactive) | > 100 µM (inactive) |  |  |  |  |
| COc1nc2c(nc(N)n2C2OCC(O)C(O)C2O)c(=O)n1C (stereo not given) | > 100 µM (inactive) | > 100 µM (inactive) | > 100 µM (inactive) | > 100 µM (inactive) | > 100 µM (inactive) | > 100 µM (inactive) | > 100 µM (inactive) | > 100 µM (inactive) | > 100 µM (inactive) | > 100 µM (inactive) | > 100 µM (inactive) |  | > 100 µM (inactive) | > 100 µM (inactive) | > 100 µM (inactive) | > 100 µM (inactive) |  |  |  |  |
| CCCOc1ccc(/C(Cl)=C(\C=O)c2ccc(OC)c(OC)c2)cc1OCCC | 9.31 µM (inactive) | 4.22 µM (inactive) | 3.53 µM (inactive) | 1.84 µM (inactive) | 19.8 µM (inactive) | 10.5 µM (inactive) | 13.2 µM (inactive) | 3.46 µM (inactive) | 11.9 µM (inactive) | 3.28 µM (inactive) | 14.1 µM (inactive) | 11.6 µM (inactive) | 9.89 µM (inactive) | 11.9 µM (inactive) | 5.73 µM (inactive) | 23.9 µM (inactive) |  |  |  |  |
| COC1C(OC(=O)/C=C/C=C/C=C/C=C/C(=O)O)CCC2(CO2)C1C1(C)OC1CC=C(C)C (stereo not given) | 18.5 µM (inactive) | 12.4 µM (inactive) | 26 µM (inactive) | 16.4 µM (inactive) | 62.1 µM (inactive) | 18.7 µM (inactive) | 42.8 µM (inactive) | 25 µM (inactive) | 29.3 µM (inactive) | 48.8 µM (inactive) | 42.3 µM (inactive) | 5.01 µM (inactive) | 28.1 µM (inactive) | 25.3 µM (inactive) | 18.5 µM (inactive) | 29.2 µM (inactive) | 21.3 µM (inactive) | > 63.8 µM (inactive) | 15.2 µM (inactive) | 18.4 µM (inactive) |
| Brc1ccc2ns[s+]c2c1 | 0.897 µM (active) | 4.91 µM (inactive) | 5.25 µM (inactive) | 2.59 µM (inactive) | 5.05 µM (inactive) | 6.24 µM (inactive) | > 26.3 µM (inactive) | 20.9 µM (inactive) | > 43.9 µM (inactive) | > 100 µM (inactive) | 4.29 µM (inactive) | 6.75 µM (inactive) | 14 µM (inactive) | > 60 µM (inactive) | 16 µM (inactive) | 29.1 µM (inactive) |  |  |  |  |
| CC1=C(N2CC2)C(=O)C(C)=C(N2CC2)C1=O | 0.0315 µM (active) | 0.206 µM (active) | 0.161 µM (active) | 0.0206 µM (active) | 0.102 µM (active) | 0.229 µM (active) | 0.309 µM (active) | 0.0412 µM (active) | 0.188 µM (active) | 0.151 µM (active) | 0.134 µM (active) | 0.306 µM (active) | 0.113 µM (active) | 0.309 µM (active) | 0.152 µM (active) | 0.249 µM (active) | 4.01 µM (inactive) | 0.0221 µM (active) | 0.282 µM (active) | 0.208 µM (active) |
| Cn1c(=O)nc2n(-c3ccc(F)c(F)c3)c3ccccc3nc-2c1=O | 8.79 µM (inactive) | 4.08 µM (inactive) | 4.89 µM (inactive) | 10.6 µM (inactive) | 44.2 µM (inactive) | 1.76 µM (inactive) | 30.3 µM (inactive) | 10.8 µM (inactive) | 13.2 µM (inactive) | 28.2 µM (inactive) | 27.1 µM (inactive) | 17 µM (inactive) | 17.6 µM (inactive) | 23.3 µM (inactive) | 14.7 µM (inactive) | 3.13 µM (inactive) |  |  |  |  |

From ChEMBL document CHEMBL1201862, “PubChem BioAssay data set” (2004)
